Patent US20250221979A1, “NOVEL HETEROCYCLIC COMPOUND” (SHOUYAO HOLDINGS (BEIJING) CO., LTD., priority 2022, published 2025)

What was measured:
[1] = In vivo pharmacokinetic study in CD-1 mice; conditions: male, mouse, single oral gavage dose of 10 mg/kg, plasma
Method: In vivo pharmacokinetic study in CD-1 mice
Twenty-four healthy adult male mice from Beijing Vital River Laboratory Animal Technology Co., Ltd. were used in the study.
CD-1 mice were administered with a single oral gavage dose of 10 mg/kg in a volume of 10 mL/kg at a concentration of 1 mg/mL.
The test article in this project is generally suspended in 0.5% hydroxypropylmethyl cellulose, 0.1% Tween 80 (W/V/V) aqueous solution at the concentration of 1 mg/mL.
Animals dosed by gavage were fasted overnight before the experiment from 16 h before dosing to 4 h after dosing. Blood was collected at 0.25, 0.5, 1, 2, 4, 6, 8, and 24 h after administration successively. The animals were lightly anesthetized with isoflurane. About 0.2 mL of whole blood was collected from the orbital venous plexus using a glass blood collection tube and placed in a sodium heparin anticoagulant tube. The sample was centrifuged at 5200 rpm for 5 min at 4° C. The plasma was transferred to a centrifuge tube and stored at −80° C. until analysis.
Analysis of plasma samples Test compounds and internal standards (warfarin or propranolol) were extracted from mouse plasma using an acetonitrile protein precipitation method and the extracts were analyzed by LC/MS/MS. The measured plasma concentration-time data of individual animals were analyzed using the non-compartmental model of WinNonlin (version 5.2.1, Pharsight) software to obtain the corresponding pharmacokinetic parameters: maximum (peak) plasma drug concentration Cmax; Time to peak Tmax; Half-life T1/2 and area under the plasma concentration-time curve extrapolated to infinite time AUC0-inf.

HCT116 MTAP−/− cells = experiment: Inhibition of proliferation of HCT116 MTAP-/- cells (Cell-Titer Glo, 7 days); format: cell-based; conditions: Homo sapiens, HCT-116, 168 h (7 days) incubation, read-out: HCT116 MTAP−/− antiproliferative activity IC50
Method: The MTAP deficient human colorectal cancer cell line HCT116 MTAP−/− was constructed using CRJSPR Cas9 technology and cultured in DMEM medium supplemented with 10% fetal bovine serum (FBS, purchased from Gibco) and 1% penicillin/streptomycin (P/S, purchased from Thermo Fisher Scientific) at 37° C. with 5% CO2. HCT116 MTAP−/− cells were plated in 96 well plates (#3917, purchased from CORNING) at a concentration of 200 cells/195 μL/well. After 24 h, the compounds were diluted in a 3-fold gradient starting at 10 mM with 100% DMSO (for a total of 10 concentrations), then 4 μL of each concentration was added to 96 μL of serum-free DMEM medium for dilution. 5 μL of diluted compound at each concentration was added to the plated cell suspension and the compound was incubated with the cells for 168 h (7 days) in a cell culture incubator. The medium was then removed and 25 μL of Cell-Titer Glo® (G7570, purchased from Promega) reagent was added. Chemiluminescence values were read on a BMG and data were processed using GraphPad Prism software to calculate IC50 values for inhibition of cell proliferation by the compounds.

human MAT2A enzyme = human MAT2A enzyme (Homo sapiens (Human), UniProt P31153); experiment: In vitro enzymatic inhibition activity assay on MAT2A (PiColorLock phosphate detection); format: biochemical; conditions: purified human MAT2A 10 nM, ATP 50 μM, L-methionine 100 μM, 6 h at 23° C.; read-out: MAT2A inhibitory activity IC50
In short: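 Purified human MAT2A (10 nM) turned L-methionine (100 μM) and ATP (50 μM) into SAM in Tris-HCl pH 7.5 buffer with MgCl2, KCl and DTT for 6 h at 23 °C. Released phosphate was read colorimetrically at 630 nm. IC50 was fitted from an 8-point, 10-fold dilution series.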

human MAT2A enzyme, sequence (P31153 whole entry): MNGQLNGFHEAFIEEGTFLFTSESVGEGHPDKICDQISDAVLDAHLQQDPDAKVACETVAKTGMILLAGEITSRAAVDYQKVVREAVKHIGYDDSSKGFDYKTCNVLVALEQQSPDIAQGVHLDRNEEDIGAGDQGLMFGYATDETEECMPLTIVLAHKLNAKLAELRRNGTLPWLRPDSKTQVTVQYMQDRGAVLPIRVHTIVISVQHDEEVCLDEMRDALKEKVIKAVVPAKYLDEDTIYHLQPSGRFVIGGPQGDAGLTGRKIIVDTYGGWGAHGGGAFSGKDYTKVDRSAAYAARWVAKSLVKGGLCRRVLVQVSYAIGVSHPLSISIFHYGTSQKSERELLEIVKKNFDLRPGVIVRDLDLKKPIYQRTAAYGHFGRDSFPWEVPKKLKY

AUC [1]: 24600 ng·h/mL
Cmax [1]: 4270 ng/mL
Tmax [1]: 2.5 h
half-life [1]: 2.98 h
IC50 (HCT116 MTAP−/− cells): 48.5 nM
IC50 (human MAT2A enzyme): 3.57 nM
SMILES: COC(=O)c1c(N)c2ccc(I)cc2n(-c2cccc3cnccc23)c1=O [Example 199, methyl 4-amino-7-iodo-1-(isoquinolin-5-yl)-2-oxo-1,2-dihydroquinoline-3-carboxylate]
